Measurements from patent US6800649B1, “Method for inhibiting c-jun expression using JAK-3 inhibitors” (Parker Hughes Institute, priority 1998, dated 2004).

Columns and labels:
[1] = system: c-jun expression in DT-40 chicken lymphoma B-cells; assay: Radiation-induced c-jun mRNA expression by Northern blot; format: cell-based; design: unit of the concentration uncertain; conditions: DT-40 cells
Procedure: FIGS. 1A and 1B. Radiation-induced c-jun activation in wild-type DT-40 lymphoma B-cells. [A]. Dose reponse for induction of c-jun mRNA. DT-40 chicken cells were irradiated at the indicated doses (0, 10, 15, 20 Gy). Total RNA was extracted after a 2 hours or 4 hours post-irradiation time period. RNA ([…]) was loaded on a Northern gel and transferred by capillary blotting to a nylon membrane. The Northern blot was hybridized with a ^32P labeled chicken c-jun probe (top panel) or a chicken GAPDH probe (bottom panel). […] Effect of the PTK inhibitor genistein on induction of c-jun mRNA. Cells were treated with […] of genistein for 24 hours at 37° C. prior to exposure to 20 Gy ionizing radiation. c-jun expression levels were determined as in [A].
FIG. 5. Effects of a JAK-3 inhibitor on c-jun induction in irradiated DT-40 cells. Cells were treated with the quinazoline derivative 4(3′-Bromo-4′-hydroxyl-phenyl)-amino-6,7-dimethoxyquinazoline ([…]) for 24 hours at 37° C. prior to exposure to 20 Gy ionizing radiation. c-jun expression levels were determined as outlined in FIGS. 1-3. […]
A 506 basepair (bp) c-jun probe was obtained by polymerase chain reaction (PCR) amplification of chicken genomic DNA. Primer sequences were determined based upon the sequence of chicken c-jun (GenBank accession code CHKJUN). […]

[2] = system: IL-2 triggered JAK-3-dependent STAT activation; assay: EMSA of IL-2 triggered STAT activation in 32Dc11-IL-2Rβ cells; format: cell-based; conditions: 100 (g/ml, EMSA (FIG. 4C legend))
Procedure: (§1) FIGS. 4B1-B4. JAK-3 Inhibitors. [A]. Structures of JAK-3 inhibitors. [B] Specificity of JAK-3 inhibitors. Sf21 cells infected with baculovirus expression vectors for JAK-1 JAK-2 or JAK-3 were subjected to immunoprecipitation with anti-JAK antibodies. JAK-1 (shown in B.1), JAK-2 (shown in B.2) and JAK-3 (shown in B.3 and B.4 which illustrate results from 2 independent experiments) immune complexes were treated with 1% DMSO (vehicle control=CON), Compound 1, or Compound 2 for 1 hour prior to hot kinase assays, as described (20,22). […] EMSAs of […]-IL-2Rβ cells. Compound 1(100 (g/ml) and Compound 2 (100 (g/ml) inhibited IL-2 triggered JAK-3-dependent STAT activation but not IL-3-triggered JAK-1/JAK-2-dependent STAT activation in 32Dc11-IL-2Rβ cells.
Electrophoretic Mobility Shift Assays (EMSAs) were performed to examine the effects of both compounds on cytokine-induced STAT activation. Specifically, 32Dc11/IL2Rβ cells (gift from James Ihle, St. Jude Children's Research Hospital) were exposed at 8×10^6/ml in RPMI supplemented with FBS to the JAK-3 inhibitors at a final concentration of 10 μg/ml in 1% DMSO) for 1 hour and subsequently stimulated with IL2 or IL3 as indicated. […]

JAK-1 = molecular target: T1, JAK-1 (Homo sapiens, UniProt P23458); assay: Immune complex hot kinase assay of JAK-1 immunoprecipitated from baculovirus-infected Sf21 cells; format: biochemical; conditions: even at 75 μg/ml, 1 hour exposure of immune complexes before kinase assay
T1 construct: made in house; host or cells: Sf21 insect cells (baculovirus)
Procedure: as §1
(§2) After establishing that LYN, BTK, and SYK kinases are not required for radiation-induced c-jun activation, we set out to determine if c-jun activation is functionally linked to the JAK-STAT pathway. To this end, we examined the effects of a JAK-3 inhibitory novel quinazoline derivative on c-jun expression levels in irradiated DT-40 cells. To identify a potent JAK-3 specific inhibitor, the effects of two novel quinazoline derivatives on the enzymatic activity of JAK-1, JAK-2, and JAK-3 were examined using Sf21 cells that were infected with baculovirus expression vectors for these kinases, using standard methods (FIG. 4). […]

JAK-2 = molecular target: T2, JAK-2 (Homo sapiens, UniProt O60674); assay: Immune complex hot kinase assay of JAK-2 immunoprecipitated from baculovirus-infected Sf21 cells; format: biochemical; conditions: even at 75 μg/ml, 1 hour exposure of immune complexes before kinase assay
T2 construct: made in house; host or cells: Sf21 insect cells (baculovirus)
Procedure: as §1, §2

JAK-3 = molecular target: T3, JAK-3 (Homo sapiens, UniProt P52333); assay: Immune complex hot kinase assay of JAK-3 immunoprecipitated from baculovirus-infected Sf21 cells; format: biochemical; conditions: 10 μg/ml, 1 hour exposure of immune complexes before kinase assay
T3 construct: made in house; host or cells: Sf21 insect cells (baculovirus)
T3 sequence (P52333 1-1124): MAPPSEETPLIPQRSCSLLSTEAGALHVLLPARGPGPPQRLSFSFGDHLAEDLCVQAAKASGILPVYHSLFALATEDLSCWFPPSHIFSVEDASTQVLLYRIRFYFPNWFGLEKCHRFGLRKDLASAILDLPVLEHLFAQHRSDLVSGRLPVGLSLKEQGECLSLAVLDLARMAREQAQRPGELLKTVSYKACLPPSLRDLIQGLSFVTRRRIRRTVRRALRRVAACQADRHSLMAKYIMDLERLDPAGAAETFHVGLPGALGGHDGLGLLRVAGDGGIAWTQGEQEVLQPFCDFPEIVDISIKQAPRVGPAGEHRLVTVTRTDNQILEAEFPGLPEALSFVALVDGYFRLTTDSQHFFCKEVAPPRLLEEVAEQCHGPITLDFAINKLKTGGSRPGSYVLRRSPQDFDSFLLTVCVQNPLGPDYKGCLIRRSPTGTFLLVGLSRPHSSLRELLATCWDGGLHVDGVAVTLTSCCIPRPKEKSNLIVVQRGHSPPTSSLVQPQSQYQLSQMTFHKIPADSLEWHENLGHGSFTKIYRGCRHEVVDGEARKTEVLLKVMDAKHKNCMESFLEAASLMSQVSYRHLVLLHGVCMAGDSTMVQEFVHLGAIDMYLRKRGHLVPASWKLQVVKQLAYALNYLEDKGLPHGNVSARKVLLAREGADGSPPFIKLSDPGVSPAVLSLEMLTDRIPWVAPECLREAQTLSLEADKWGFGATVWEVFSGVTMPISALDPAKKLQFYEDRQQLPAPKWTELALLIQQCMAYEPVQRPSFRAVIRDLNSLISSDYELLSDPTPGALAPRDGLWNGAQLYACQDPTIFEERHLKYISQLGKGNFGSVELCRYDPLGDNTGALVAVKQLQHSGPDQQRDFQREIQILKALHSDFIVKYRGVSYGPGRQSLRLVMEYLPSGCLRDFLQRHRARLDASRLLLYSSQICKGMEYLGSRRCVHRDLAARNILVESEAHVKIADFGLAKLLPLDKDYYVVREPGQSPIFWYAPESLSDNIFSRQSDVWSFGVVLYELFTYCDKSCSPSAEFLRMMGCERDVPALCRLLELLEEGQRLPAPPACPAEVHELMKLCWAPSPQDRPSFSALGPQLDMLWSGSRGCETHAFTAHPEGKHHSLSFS
Procedure: as §1, §2

T1 sequence (P23458 whole entry, species assumed): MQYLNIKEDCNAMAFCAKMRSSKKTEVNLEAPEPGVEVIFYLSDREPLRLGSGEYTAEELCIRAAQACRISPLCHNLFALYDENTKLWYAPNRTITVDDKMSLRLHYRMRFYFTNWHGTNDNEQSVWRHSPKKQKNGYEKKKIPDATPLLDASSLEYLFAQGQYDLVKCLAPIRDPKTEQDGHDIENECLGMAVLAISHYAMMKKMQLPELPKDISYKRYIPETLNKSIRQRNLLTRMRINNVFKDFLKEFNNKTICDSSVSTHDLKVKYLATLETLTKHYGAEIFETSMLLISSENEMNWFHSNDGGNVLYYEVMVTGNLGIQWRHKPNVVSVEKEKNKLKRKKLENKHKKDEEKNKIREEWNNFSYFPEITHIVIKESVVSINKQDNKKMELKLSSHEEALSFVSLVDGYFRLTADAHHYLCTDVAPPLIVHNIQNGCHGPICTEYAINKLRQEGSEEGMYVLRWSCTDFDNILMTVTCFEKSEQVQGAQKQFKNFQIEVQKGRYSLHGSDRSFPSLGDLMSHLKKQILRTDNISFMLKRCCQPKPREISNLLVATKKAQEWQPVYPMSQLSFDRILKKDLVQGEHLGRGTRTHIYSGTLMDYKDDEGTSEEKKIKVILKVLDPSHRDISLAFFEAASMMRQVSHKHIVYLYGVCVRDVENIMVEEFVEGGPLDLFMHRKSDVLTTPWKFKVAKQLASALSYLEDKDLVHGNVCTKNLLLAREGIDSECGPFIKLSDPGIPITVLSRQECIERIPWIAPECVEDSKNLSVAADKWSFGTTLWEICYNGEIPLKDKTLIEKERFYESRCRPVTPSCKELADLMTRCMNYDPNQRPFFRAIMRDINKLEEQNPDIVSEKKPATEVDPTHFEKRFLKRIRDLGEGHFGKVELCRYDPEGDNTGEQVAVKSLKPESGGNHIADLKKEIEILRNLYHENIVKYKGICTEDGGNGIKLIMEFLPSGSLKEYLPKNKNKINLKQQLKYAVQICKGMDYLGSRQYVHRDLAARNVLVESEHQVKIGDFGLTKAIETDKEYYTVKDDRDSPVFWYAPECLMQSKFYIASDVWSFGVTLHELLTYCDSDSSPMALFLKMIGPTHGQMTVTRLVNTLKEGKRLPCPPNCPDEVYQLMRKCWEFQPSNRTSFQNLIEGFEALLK
T2 sequence (O60674 whole entry, species assumed): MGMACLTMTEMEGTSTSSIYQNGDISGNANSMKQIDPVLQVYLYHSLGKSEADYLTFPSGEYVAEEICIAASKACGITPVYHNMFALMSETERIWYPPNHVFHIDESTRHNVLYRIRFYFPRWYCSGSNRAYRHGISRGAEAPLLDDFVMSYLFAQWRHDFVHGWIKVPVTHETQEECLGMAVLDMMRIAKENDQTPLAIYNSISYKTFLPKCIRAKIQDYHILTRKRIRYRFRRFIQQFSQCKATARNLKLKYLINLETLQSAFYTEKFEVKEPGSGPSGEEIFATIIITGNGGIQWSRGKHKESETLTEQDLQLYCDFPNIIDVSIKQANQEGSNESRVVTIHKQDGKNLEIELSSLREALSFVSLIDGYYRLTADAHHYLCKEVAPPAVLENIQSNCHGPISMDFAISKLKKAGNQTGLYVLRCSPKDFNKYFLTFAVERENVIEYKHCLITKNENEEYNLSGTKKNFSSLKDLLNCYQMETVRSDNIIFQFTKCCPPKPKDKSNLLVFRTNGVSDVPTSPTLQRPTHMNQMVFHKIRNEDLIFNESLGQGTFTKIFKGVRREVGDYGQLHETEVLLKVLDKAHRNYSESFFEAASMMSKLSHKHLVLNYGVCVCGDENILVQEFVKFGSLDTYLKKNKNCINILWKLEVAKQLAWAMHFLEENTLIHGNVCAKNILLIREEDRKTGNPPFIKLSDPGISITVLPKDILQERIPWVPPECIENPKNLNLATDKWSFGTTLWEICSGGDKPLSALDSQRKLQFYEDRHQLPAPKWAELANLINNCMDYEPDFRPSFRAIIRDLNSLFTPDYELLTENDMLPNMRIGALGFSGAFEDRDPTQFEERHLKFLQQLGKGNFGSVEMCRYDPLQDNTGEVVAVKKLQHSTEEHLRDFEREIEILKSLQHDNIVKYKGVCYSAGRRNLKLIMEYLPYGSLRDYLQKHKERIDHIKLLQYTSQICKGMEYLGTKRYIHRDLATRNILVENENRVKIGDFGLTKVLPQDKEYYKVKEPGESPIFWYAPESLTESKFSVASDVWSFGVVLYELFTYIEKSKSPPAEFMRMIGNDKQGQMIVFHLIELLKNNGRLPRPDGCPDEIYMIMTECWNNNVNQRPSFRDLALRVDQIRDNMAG

SMILES | induction of c-jun expression by ionizing radiation in treated cells ([1]; 100 (unit uncertain) for 24 hours at 37° C. before 20 Gy ionizing radiation) | inhibition of IL-2 triggered JAK-3-dependent STAT activation [2] | inhibition of JAK-1 enzymatic activity (JAK-1) | inhibition of JAK-2 enzymatic activity (JAK-2) | inhibition of JAK-3 enzymatic activity (JAK-3) | stimulation index (c-jun/GAPDH ratio, irradiated versus non-irradiated cells) ([1]; 30 (unit uncertain) for 24 hours at 37° C. before 20 Gy ionizing radiation)
COc1cc2ncnc(Nc3ccc(O)c(Br)c3)c2cc1OC [Compound 2, 4-(3′-Bromo-4′-hydroxylphenyl)-amino-6,7-dimethoxy-quinazoline] | failed to induce c-jun expression | inhibited | did not inhibit | did not inhibit | inhibited | –
COc1cc2ncnc(Nc3ccc(O)cc3)c2cc1OC [Compound 1, 4-(4′-Hydroxylphenyl)-amino-6,7-dimethoxy-quinazoline] | – | inhibited | did not inhibit | did not inhibit | inhibited | –
O=c1c(-c2ccc(O)cc2)coc2cc(O)cc(O)c12 [genistein, reference compound] | – | – | – | – | – | 1.1
